Experiments:
cd3ε^−/− mice = experiment: Treg cell generation in murine model of inflammatory bowel disease; format: in vivo, mouse; details: 3 mM oATP in 100 μl i.v., with transfer or 16 hours after; day 28
Source text: FIG. 14: Experimental protocol for Treg generation in a mouse model of inflammatory bowel disease. • CD3ε^−/− mice were adoptively transferred with 2×10^5 naïve CD4^+ T cells; 2×10^5 naïve CD4^+ T cells with oATP; 2×10^5 naïve CD4^+ T cells with administration of oATP sixteen hours after the transfer; or 2×10^5 naïve CD4^+ T cells with 10^5 natural Treg cells. oATP-treated animals received daily intravenous oATP administration on days 2-5, no oATP administration on days 6 and 7, and daily intravenous oATP administration on days 8-12. Mice were analyzed for CD4^+ subpopulations on day 28 (See Example 12).
FIG. 15: Treg cell generation with oATP treatment in a mouse model of inflammatory bowel disease. • a) Colons, spleens and mesenteric lymph nodes of test animals were assessed for inflammation fourteen days after the last injection of oATP (see Example 12). • b) FACS analysis identifying the percentage of CD4^+CD25^highFoxp3 regulatory T cells. • c) FACS analysis identifying effector memory T cells as CD4^+CD44^+CD62L^− or CD4^+CD25^+CD69^+. The ratio of Treg cells to effector memory T cells is shown. […]
Four experimental groups of CD3ε^−/− mice were tested for Treg generation (FIG. 14). […] Mice were analyzed on day 28.
The colons of the animals were assessed for inflammation 14 days after the last injection of oATP (FIG. 15A). […]

NFAT1 = NFAT1 nuclear localization after T cell stimulation; format: cell-based, mouse
Method: In order to distinguish between TCR dependent and independent ERK activation, TCR signaling was blocked at 30 min after CD3 activation with the tyrosine kinase inhibitor PP2, which inhibits TCR dependent Ick/fyn src-like kinase activity.
NFAT nuclear translocation without concomitant MAPK activation, which can be obtained by ionomycin treatment, implements a transcriptional program leading to T cell anergy (Macian et al., Cell 109:719-731 (2002)). […] Then, we hypothesized that activation of T cells in the presence of oATP could induce T cell anergy.

NZB/NZW F1 mice = experiment: Systemic lupus erythematosus / glomerulonephritis model; format: in vivo, mouse
Method: Graph representing protein concentration in urine from NZB/NZW Fi mice treated either with PBS (control) or oATP. 25-week -old female mice received either PBS or oATP intravenously (3 mM in 100 μl, five days treatment, 2 days break) for 6 weeks (see Example 14). Ten animals received PBS and ten animals received oATP.
Twenty-five week-old NZB/NZW F1 female mice were injected intravenously with either PBS or oATP (3 mM in 100 μl, five days treatment, 2 days break) for six weeks and examined for proteinuria (upper panel) and other indicated parameters (lower panels) (see Example 14). **: P<0.01; ***: P<0.001.
Effector/memory (CD44^+CD62L^−) CD4^+ cells recovered from the spleen of 25 week-old NZB/NZW F1 female mice treated either with PBS or oATP (upper panel); IFN-γ and IL-4 secretion by CD4^+ effector/memory T cells stimulated with plate bound anti-CD3 and anti-CD28 antibodies for 48 h detected by ELISA (lower panels) (see Example 14). **: P<0.01; ***: P<0.001.
Systemic lupus erythematosus (SLE), or its mouse model NZB/NZW F1 (Andrews et al., J. Exp. Med. 148:1198-1215 (1978)), is a chronic inflammatory disease characterized by polyclonal B cell activation with subsequent hypergammaglobulinemia and organ injury caused by immune complex deposits. Because CD4^+ T cells play a crucial role in the onset and propagation of the disease, we analyzed whether oATP treatment might ameliorate disease symptoms. Female NZB/NZW F1 mice at 25 weeks old (when most animals display proteinuria) received either PBS or oATP intravenously (3 mM in 100 μl, five days treatment, 2 days break) for 6 weeks. The proteinuria values were measured before the first treatment and at regular intervals after three weeks of oATP administration. […] Restimulation of sorted effector/memory T cells led to lower levels of IL-4 and IFNγ secretion in cells derived from oATP treated animals (18. 16, lower panels).

naive CD4 T cells = experiment: T cell proliferation by CFSE dilution, plate-bound CD3 and CD28 mAbs; format: cell-based, mouse
[1] = tested on: T cells stimulated by anti-CD3 under Th17 skewing conditions; experiment: Th17 skewing conditions (TGFβ and IL-6), Foxp3 and RORγT expression; format: cell-based
Method: Treatment with oATP at 100 μM inhibits Th17 differentiation and promotes Foxp3 expression. […] The absolute number of CD4^+CD25^high cells expressing Foxp3 by FACS analysis was increased (FIG. 12B). Moreover, the de-differentiation of sorted CD4^+CD25^high natural Treg cells to the Th17 lineage following stimulation (Koenen et al., Blood 112(6):2340-2352 (2008)) was prevented by oATP at 100 μM (FIG. 12C).

[2] = Th17 skewing conditions, oATP 100 μM

In the case of `Nc1ncnc2c1ncn2[C@@H](C=O)O[C@@H](C=O)COP(=O)(O)OP(=O)(O)OP(=O)(O)O` [oATP], the “Treg generation from naïve T cells” value (cd3ε^−/− mice) is reported as “most effective when oATP is present during the first activation of the naïve T cells”, the “nuclear localization of NFAT1” value (NFAT1) is reported as “did not significantly affect” and the proteinuria levels (NZB/NZW F1 mice; 3 mM in 100 μl i.v., five days treatment, 2 days break, 6 weeks) is reported as “remained similar to pre-treatment levels”. For the same compound, the “IL-4 and IFNγ secretion of restimulated sorted effector/memory T cells” value (NZB/NZW F1 mice; anti-CD3 and anti-CD28, 48 h, ELISA) was “lower levels”, the “Histopathological scoring of kidneys: glomerular proliferation, lymphomonocytic infiltration and immune complex deposition” value (NZB/NZW F1 mice; mouse, in vivo) was “significant reduction” and the “number of effector/memory T cells in spleen and lymph nodes” value (NZB/NZW F1 mice; mouse, in vivo) was “significantly reduced”. For the same compound, the “T cell proliferation (CFSE dilution)” value (naive CD4 T cells) was “almost completely inhibited”, the “absolute number of CD4^+CD25^high cells expressing Foxp3 (FACS)” value ([1]; Th17 skewing conditions) was “increased” and the “expression of Foxp3 (quantitative RT-PCR)” value [1, 2] was “gradually increased”. For the same compound, the “expression of RORγT (quantitative RT-PCR)” value [1, 2] was “suppressing”, the Th17 differentiation ([1]; oATP 100 μM) was “inhibits” and the “de-differentiation of sorted CD4^+CD25^high natural Treg cells to the Th17 lineage” value ([1]; oATP 100 μM) was “prevented”.
